According to patent publication US6831075B2, “Heterocyclic substituted pyrazolones” (Cephalon, Inc., priority 1999, dated 2004):

Assays:
Format in all cases: biochemical
baculoviral GST-MLK2KDLZ = target: T1, baculoviral GST-MLK2KDLZ (Homo sapiens, UniProt Q02779); assay: Mixed Lineage Kinase-2 inhibition assay (Millipore Multiscreen plate, 32P); conditions: 1 uM compound, 100 μM ATP; for inhibition at 1 µM: read-out: MLK-2 Kinase % inhibition @ 1 uM
T1 construct: 3 μg/ml of baculoviral GST-MLK2KDLZ; GST (N); host or cells: baculovirus expression system
Protocol: Inhibition of Mixed Lineage Kinase-2 Activity
(§1) Assays were performed using the Millipore Multiscreen plate format as described for MLK1. Each 50-μl assay mixture contained 20 mM Hepes, pH 7, 1 mM EGTA, 10 mM MgCl2, 1 mM DTT, 25 mM β-glycerophosphate, 100 μM ATP, 0.25 μCi [γ-^32P]ATP, 0.1% BSA, 500 μg/ml myelin basic protein (UBI #13-104), 2% DMSO, various concentrations of test compound, and 3 μg/ml of baculoviral GST-MLK2KDLZ. Samples were incubated for 15 min. at 37° C. The reaction was stopped by adding ice cold 50% TCA and the proteins were allowed to precipitate for 30 min at 4° C. The plates were then washed with ice cold 25% TCA Supermix scintillation cocktail was added, and the plates were allowed to equilibrate for 1-2 hours prior to counting.

[1] = target: T2, recombinant human baculoviral VEGFR2 cyctoplasmic domain (Homo sapiens, UniProt P35968); assay: VEGFR2 kinase inhibition assay (ELISA-based, time-resolved fluorescence); conditions: 1 uM compound, 30 μM ATP; for inhibition at 1 µM: read-out: VEGFR-2 kinase % inhibition @ 1 uM
T2 construct: recombinant human baculoviral VEGFR2 cyctoplasmic domain; host or cells: baculovirus expression system
Protocol: Inhibition of Vascular Endothelial Growth Factor Receptor-2 Kinase Activity
Assay were performed as described for trkA kinase below. The 96-well microtiter plate (FluoroNUNC Maxisorp) was coated with 40 μg/ml recombinant human phospholipase C-γ1/glutathione S-transferase fusion protein. Inhibition studies were performed in 100 μl assay mixtures containing 50 mM HEPES, pH 7.4, 30 μM ATP, 10 mM MnCl2, 0.1% BSA, 2% DMSO, and 1 μM of test compound. The reaction was initiated by adding prephosphorylated recombinant human baculoviral VEGFR2 cyctoplasmic domain. The reaction was allowed to proceed for 15 minutes at 37° C. The detection antibody, eurpium-labeled anti-phosphotyrosine antibody (Wallac #CR04-100), was added at 1:5000 dilution in block buffer (3% BSA in TBST).

baculoviral GST-MLK1KD = target: T3, baculoviral GST-MLK1KD (Homo sapiens, UniProt P80192); assay: Mixed Lineage Kinase-1 inhibition assay (Millipore Multiscreen TCA in-plate, 32P); conditions: for MLK-1 Kinase % inhibition @ 1 uM: 1 uM compound, 60 μM ATP; for inhibition at 1 µM: read-out: MLK-1 Kinase % inhibition @ 1 uM
T3 construct: 1 μg/ml of baculoviral GST-MLK1KD; GST (N); host or cells: baculovirus expression system
Protocol: Inhibition of Mixed Lineage Kinase-1 Activity
The kinase activity of MLK1 was assessed using the Millipore Multiscreen TCA “in-plate” format as described for protein kinase C (Pitt & Lee, J. Biomol. Screening, 1: 47-51, 1996). Briefly, each 50-μl assay mixture contained 20 mM Hepes, pH 7.0, 1 mM EGTA, 10 mM MgCl2, 1 mM DTT, 25 mM β-glycerophosphate, 60 μM ATP, 0.25 μCi [γ-^32P]ATP, 0.1% BSA, 500 μg/ml myelin basic protein (UBI #13-104), 2% DMSO, 1 μM of test compound, and 1 μg/ml of baculoviral GST-MLK1KD. Samples were incubated for 15 min at 37° C. The reaction was stopped by adding ice cold 50% TCA and the protein were allowed to precipitate for 30 min at 4° C. The plates were then washed with ice cold 25% TCA. Supermix scintillation cocktail was added, and the plates were allowed to equilibrate for 1-2 hours prior to counting using the Wallac MicroBeta 1450 PLUS scintillation counter.

baculoviral GST-MLK3KD = target: T4, baculoviral GST-MLK3KD (Homo sapiens, UniProt Q16584); assay: Mixed Lineage Kinase-3 inhibition assay (Millipore Multiscreen plate, 32P); conditions: 1 uM compound, 100 μM ATP; for inhibition at 1 µM: read-out: MLK-3 Kinase % inhibition @ 1 uM
T4 construct: 2 μg/ml of baculoviral GST-MLK3KD; GST (N); host or cells: baculovirus expression system
Protocol: Inhibition of Mixed Lineage Kinase-3 Activity
as §1, with “MLK1. Briefly, each” for “MLK1. Each”, “and 2” for “and 3”, “baculoviral GST-MLK3KD.” for “baculoviral GST-MLK2KDLZ.”, “15 min” for “15 min.”, “25% TCA.” for “25% TCA”

[2] = target: T5, baculovirus-expressed human trkA cytoplasmic domain (Homo sapiens, UniProt P04629); assay: trkA tyrosine kinase inhibition assay (ELISA-based); conditions: 1 uM compound; 40 μM ATP
T5 construct: baculovirus-expressed human trkA cytoplasmic domain; host or cells: baculovirus expression system
Protocol: Inhibition of trkA Tyrosine Kinase Activity
Selected heterocyclic substituted pyrazolones were tested for their ability to inhibit the kinase activity of baculovirus-expressed human trkA cytoplasmic domain using an ELISA-based assay as previously described (Angeles et al., Anal. Biochem. 236: 49-55, 1996). Briefly, a 96-well microtiter plate was coated with substrate solution (recombinant human phospholipase C-γl/glutathione S-transferase fusion protein (Rotin et al., EMBO J., 11: 559-567, 1992). Inhibition studies were performed in 100 μl assay mixtures containing 50 mM Hepes, pH 7.4, 40 μM ATP, 10 mM MnCl2, 0.1% BSA, 2% DMSO, and various concentrations of inhibitor. The reaction was initiated by addition of trkA kinase and allowed to proceed for 15 minutes at 37° C. An antibody to phosphotyrosine (UBI) was then added, followed by a secondary enzyme-conjugated antibody, alkaline phosphatase-labelled goat anti-mouse IgG (Bio-Rad). The activity of the bound enzyme was measured via an amplified detection system (Gibco-BRL). Inhibition data were analyzed using the sigmoidal dose-response (variable slope) equation in GraphPad Prism.

T3 sequence (P80192 144-412 limits assumed): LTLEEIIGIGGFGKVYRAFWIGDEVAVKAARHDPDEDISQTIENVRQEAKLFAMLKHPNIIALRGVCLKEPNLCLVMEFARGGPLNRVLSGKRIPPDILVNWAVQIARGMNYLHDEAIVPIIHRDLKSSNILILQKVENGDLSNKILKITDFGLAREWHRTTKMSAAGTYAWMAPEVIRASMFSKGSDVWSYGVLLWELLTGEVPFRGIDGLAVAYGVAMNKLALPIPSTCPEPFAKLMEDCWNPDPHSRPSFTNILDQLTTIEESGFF
T4 sequence (Q16584 117-379 limits assumed): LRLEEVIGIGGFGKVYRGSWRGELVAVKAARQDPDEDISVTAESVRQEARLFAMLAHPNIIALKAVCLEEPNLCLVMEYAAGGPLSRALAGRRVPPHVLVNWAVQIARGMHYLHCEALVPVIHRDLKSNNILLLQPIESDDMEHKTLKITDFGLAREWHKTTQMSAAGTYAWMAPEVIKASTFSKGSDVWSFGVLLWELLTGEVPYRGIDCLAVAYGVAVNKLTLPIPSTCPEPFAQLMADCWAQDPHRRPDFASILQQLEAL
T1 sequence (Q02779 98-440 limits assumed): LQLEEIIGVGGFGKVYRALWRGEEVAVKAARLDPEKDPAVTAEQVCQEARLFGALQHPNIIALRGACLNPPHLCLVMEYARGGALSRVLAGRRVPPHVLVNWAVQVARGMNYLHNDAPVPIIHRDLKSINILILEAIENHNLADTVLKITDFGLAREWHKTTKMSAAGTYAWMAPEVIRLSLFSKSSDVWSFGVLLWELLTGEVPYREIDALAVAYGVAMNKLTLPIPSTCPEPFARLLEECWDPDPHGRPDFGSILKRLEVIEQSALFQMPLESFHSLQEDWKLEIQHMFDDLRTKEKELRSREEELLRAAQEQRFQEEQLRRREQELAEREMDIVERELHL
T2 sequence (P35968 786-1356 limits assumed): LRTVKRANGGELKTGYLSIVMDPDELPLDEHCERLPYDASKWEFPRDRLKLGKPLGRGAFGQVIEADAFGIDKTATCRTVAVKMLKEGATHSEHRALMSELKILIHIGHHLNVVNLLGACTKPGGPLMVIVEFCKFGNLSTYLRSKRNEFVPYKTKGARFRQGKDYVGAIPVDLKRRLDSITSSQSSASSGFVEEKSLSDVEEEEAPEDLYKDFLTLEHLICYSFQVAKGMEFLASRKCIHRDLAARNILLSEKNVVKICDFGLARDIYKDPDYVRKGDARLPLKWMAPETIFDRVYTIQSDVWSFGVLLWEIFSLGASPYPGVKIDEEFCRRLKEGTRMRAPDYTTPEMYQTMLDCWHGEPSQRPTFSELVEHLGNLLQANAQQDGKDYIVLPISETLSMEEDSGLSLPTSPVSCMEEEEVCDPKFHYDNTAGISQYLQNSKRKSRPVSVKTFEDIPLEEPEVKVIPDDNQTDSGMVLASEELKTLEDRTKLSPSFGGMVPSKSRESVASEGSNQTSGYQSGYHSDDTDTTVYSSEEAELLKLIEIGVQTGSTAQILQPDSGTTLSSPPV
T5 sequence (P04629 440-796 limits assumed): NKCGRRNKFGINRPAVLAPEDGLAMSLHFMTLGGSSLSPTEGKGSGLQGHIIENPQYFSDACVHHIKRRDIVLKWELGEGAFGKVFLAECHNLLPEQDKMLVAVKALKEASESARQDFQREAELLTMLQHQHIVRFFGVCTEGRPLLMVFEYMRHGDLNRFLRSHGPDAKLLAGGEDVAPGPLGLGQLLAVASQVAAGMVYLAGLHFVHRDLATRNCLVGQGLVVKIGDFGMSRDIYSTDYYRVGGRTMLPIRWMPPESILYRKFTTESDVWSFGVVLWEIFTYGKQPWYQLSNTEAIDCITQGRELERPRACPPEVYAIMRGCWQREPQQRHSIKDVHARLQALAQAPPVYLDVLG

Structure (SMILES)	MLK-2 Kinase % inhibition @ 1 uM (baculoviral GST-MLK2KDLZ) [%]	VEGFR-2 kinase % inhibition @ 1 uM [1] [%]	MLK-1 Kinase % inhibition @ 1 uM (baculoviral GST-MLK1KD) [%]	MLK-3 Kinase % inhibition @ 1 uM (baculoviral GST-MLK3KD) [%]	trkA % inhibition @ 1 uM [2] [%]	inhibition at 1 µM (baculoviral GST-MLK2KDLZ) [%]	inhibition at 1 µM [1] [%]	inhibition at 1 µM (baculoviral GST-MLK1KD) [%]	inhibition at 1 µM (baculoviral GST-MLK3KD) [%]	inhibition at 1 µM [2] [%]
Cn1cc(C=C2C(=O)NN=C2c2ccoc2)c2ccccc21 [Compound 20]	−3	67	21	57	60	–	–	–	–	–
O=C1NN=C(c2ccoc2)C1=Cc1c[nH]c2ccc(OCc3ccccc3)cc12 [Compound 21]	−13	12	4	24	56	–	–	–	–	–
Cc1cccc2c(C=C3C(=O)NN=C3c3ccoc3)c[nH]c12 [Compound 22]	−13	41	1	24	44	–	–	–	–	–
Cc1cc(C)c(C=C2C(=O)NN=C2c2ccn(C)c2)[nH]1 [Compound 23]	−6	7	30	69	26	–	–	–	–	–
Cn1ccc(C2=NNC(=O)C2=Cc2c[nH]c3ccccc23)c1 [Compound 24]	4	32	10	38	22	–	–	–	–	–
O=C1NN=C(c2nccs2)C1=Cc1c[nH]c2ccccc12 [Compound 25, 4-(indol-3-ylmethylene)-3-(1,3-thiazol-2-yl)-2-pyrazolin-5-one]	–	–	–	–	–	-4	64	11	48	65
Cc1cc(C)c(C=C2C(=O)NN=C2c2c(C)coc2C)[nH]1 [Compound 27]	−4	40	6	44	49	–	–	–	–	–
Cc1cc(C)c(C=C2C(=O)NN=C2c2ccco2)[nH]1 [Compound 28, 4-[(3,5-dimethylpyrrol-2-yl)methylene]-3-(2-furyl)-2-pyrazolin-5-one]	–	–	–	–	–	10	80	2	50	34
O=C1NN=C(c2ccco2)C1=Cc1c[nH]c2ccccc12 [Compound 29, 3-(2-furyl)-4-(indol-3-ylmethylene)-2-pyrazolin-5-one]	–	–	–	–	–	2	68	21	38	43
Cc1cc(C)c(C=C2C(=O)NN=C2c2ccccn2)[nH]1 [Compound 30]	1	68	2	46	22	–	–	–	–	–
Cn1ccc(C2=NNC(=O)C2=Cc2c[nH]c3cccc(OCc4ccccc4)c23)c1 [Compound 31]	0	16	27	49	39	–	–	–	–	–
Cn1ccc(C2=NNC(=O)C2=Cc2c[nH]c3ccc(F)cc23)c1 [Compound 32]	−14	47	5	42	8	–	–	–	–	–
Cc1ccc2c(C=C3C(=O)NN=C3c3ccn(C)c3)c[nH]c2c1 [Compound 33]	−13	25	8	28	32	–	–	–	–	–
Cc1cccc2c(C=C3C(=O)NN=C3c3ccn(C)c3)c[nH]c12 [Compound 34]	1	32	17	32	25	–	–	–	–	–
Cn1ccc(C2=NNC(=O)C2=Cc2c[nH]c3ccc(Cl)cc23)c1 [Compound 35]	−15	19	7	34	23	–	–	–	–	–
Cc1cc(C)c(C=C2C(=O)NN=C2c2cc(C)oc2C)[nH]1 [Compound 36]	−18	27	−9	25	40	–	–	–	–	–
Cc1cc(C)c(C=C2C(=O)NN=C2c2ccsc2)[nH]1 [Compound 37, 4-[(3,5-dimethylpyrrol-2-yl)methylene]-3-(3-thienyl)-2-pyrazolin-5-one]	–	–	–	–	–	12	62	15	79	28
O=C1NN=C(c2cccs2)C1=Cc1c[nH]c2ccccc12 [Compound 38, 4-(indol-3-ylmethylene)-3-(2-thienyl)-2-pyrazolin-5-one]	–	–	–	–	–	2	42	16	38	40
Cc1cc(C)c(C=C2C(=O)NN=C2c2csc3ccccc23)[nH]1 [Compound 39]	−7	13	4	55	31	–	–	–	–	–
Cc1cc(C)c(C=C2C(=O)NN=C2c2csc(-c3ccccc3)n2)[nH]1 [Compound 40]	−8	26	33	22	27	–	–	–	–	–
Cc1cc(C)c(C=C2C(=O)NN=C2c2cc(-c3ccc(Cl)cc3)oc2C)[nH]1 [Compound 41]	−15	13	13	10	17	–	–	–	–	–
